Reference: ChEMBL document CHEMBL1201862, “PubChem BioAssay data set” (2004)
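Five compound concentrations were applied to cells in 96-well plates for 48 hours; endpoints were derived by simple linear interpolation of the resulting dose-response curve. GI50 is the concentration that inhibits growth by half.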 Active and inactive are the calls of the source. No stated cut-off is given here; in the data, active = GI50 up to about 1.1 µM and inactive = higher.

How the values were obtained:
Assay in all cases: DTP human tumour cell line panel, 48 h
HOP-62 = system: HOP-62
CCRF-CEM = system: CCRF-CEM
SF-295 = system: SF-295
HT-29 = system: HT-29
HCT-15 = system: HCT-15
U-251 = system: U-251
786-0 = system: 786-0
SF-268 = system: SF-268
NCI-H460 = system: NCI-H460
UO-31 = system: UO-31
NCI-H226 = system: NCI-H226
KM12 = system: KM12
OVCAR-5 = system: OVCAR-5
BT-549 = system: BT-549
SNB-19 = system: SNB-19
SN12C = system: SN12C
MCF7 = system: MCF7
SR = system: SR
MDA-N = system: MDA-N
LOX IMVI = system: LOX IMVI

Structure (SMILES) | GI50 (HOP-62) | GI50 (CCRF-CEM) | GI50 (SF-295) | GI50 (HT-29) | GI50 (HCT-15) [µM] | GI50 (U-251) | GI50 (786-0) | GI50 (SF-268) | GI50 (NCI-H460) | GI50 (UO-31) | GI50 (NCI-H226) | GI50 (KM12) | GI50 (OVCAR-5) | GI50 (BT-549) | GI50 (SNB-19) | GI50 (SN12C) | GI50 (MCF7) | GI50 (SR) | GI50 (MDA-N) | GI50 (LOX IMVI)
COc1c(O)ccc(C2=Cc3ccc(O)cc3OC2)c1OC | 20.9 µM (inactive) | 4.37 µM (inactive) | 22.8 µM (inactive) | 30.4 µM (inactive) | 14.1 | 26 µM (inactive) | 16.3 µM (inactive) | 20.2 µM (inactive) | 31 µM (inactive) | 11.6 µM (inactive) | 23.4 µM (inactive) | 7.33 µM (inactive) | 30.1 µM (inactive) | 23.6 µM (inactive) | 55.3 µM (inactive) | 23 µM (inactive) | 32.4 µM (inactive) | 2.15 µM (inactive) | 3.68 µM (inactive) | 26.1 µM (inactive)
CN1CCCN(C)C1c1cc([N+](=O)[O-])ccc1O | 40.7 µM (inactive) | 22 µM (inactive) | 37.3 µM (inactive) | 33.8 µM (inactive) | 43.6 | 26.5 µM (inactive) | 33 µM (inactive) | 34.2 µM (inactive) | 30.1 µM (inactive) | 0.436 µM (active) | 34.1 µM (inactive) | 36.6 µM (inactive) | > 100 µM (inactive) | 39.5 µM (inactive) | 30.8 µM (inactive) | 31.6 µM (inactive) | 19.8 µM (inactive) | 21.6 µM (inactive) | 40.7 µM (inactive) | 19.4 µM (inactive)
OC(c1cc(-c2ccccc2)nc2c1ccc1ccccc12)C1CCCCN1 (stereo not given) | 1.67 µM (inactive) | 0.0473 µM (active) | 1.97 µM (inactive) | 1.68 µM (inactive) | 2.12 | 1.76 µM (inactive) | 1.64 µM (inactive) | 1.43 µM (inactive) | 1.79 µM (inactive) | 1.02 µM (active) | 2.95 µM (inactive) | 1.86 µM (inactive) | 1.6 µM (inactive) | 3.97 µM (inactive) | 1.82 µM (inactive) | 1.62 µM (inactive) | 1.87 µM (inactive) | 1.18 µM (inactive) | 1.64 µM (inactive) | 1.11 µM (active)
Cc1ccc(S(=O)(=O)n2ccn3c(=O)cc(C)nc23)cc1 | > 10 µM (inactive) | > 10 µM (inactive) | > 10 µM (inactive) | > 10 µM (inactive) | > 10 | > 10 µM (inactive) | > 10 µM (inactive) | > 10 µM (inactive) | > 10 µM (inactive) | > 10 µM (inactive) | > 10 µM (inactive) | > 10 µM (inactive) | > 10 µM (inactive) | > 10 µM (inactive) | > 10 µM (inactive) | > 10 µM (inactive) | > 10 µM (inactive) | > 10 µM (inactive) | > 10 µM (inactive) | > 10 µM (inactive)
COC(=O)C1=C(C)NC(C)=C(C(=O)OC)C1c1ccc(N=O)cc1 | 23.8 µM (inactive) | 0.897 µM (active) | 24.4 µM (inactive) | 13.6 µM (inactive) | 9.53 | 17.4 µM (inactive) | 14.6 µM (inactive) | 22.1 µM (inactive) | 18.9 µM (inactive) | 13.2 µM (inactive) | 16 µM (inactive) | 18.5 µM (inactive) | 17.5 µM (inactive) | 8.87 µM (inactive) | 38.7 µM (inactive) | 19.5 µM (inactive) | 17.9 µM (inactive) | 0.776 µM (active) | 6.75 µM (inactive) | 5.9 µM (inactive)
